Results published in patent US8835125B2, “Methods and compositions for selective labeling of different biotinylated targets within multicolor or multilabel assays” (Affymetrix, Inc., priority 2011, dated 2014).

What was measured:
streptavidin = streptavidin (Streptomyces avidinii, UniProt P22629); settings: association constant; cited from earlier work
SAPE [1] = molecular target: T1, SAPE (Streptomyces avidinii, UniProt P22629); experiment: stability of DMT protected biotin against SAPE staining after 3 hour ligation (FIG. 13); settings: array probes after 3 hours ligation reaction, no acid treatment
T1 sequence (P22629 25-183): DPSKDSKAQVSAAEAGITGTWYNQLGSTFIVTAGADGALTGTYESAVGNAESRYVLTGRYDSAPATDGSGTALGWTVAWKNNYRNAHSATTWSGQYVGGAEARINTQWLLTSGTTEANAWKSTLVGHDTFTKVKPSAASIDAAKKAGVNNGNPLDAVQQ

SAPE [2] = molecular target: T1, SAPE; experiment: displacement of SAPE from desthiobiotin by biotin solution and re-staining (FIG. 15); format: binding; settings: 1 mM biotin solution, then restaining with SAPE
Protocol: The next step was to displace the streptavidin-phycoerythrin conjugate bound to the desthiobiotin of the ligated A/T probes. This was done by washing the array with solution biotin (1 mM) in NaCl (150 mM) for 4 hours at room temperature. The displaced streptavidin-phycoerythrin conjugate previous bound to the desthiobiotinylated probes was then removed.
FIGS. 15(A)-15(C) contain images of sub-regions with sets of probes to test the effectiveness of binding and displacement of desthiobiotin with biotin. Specifically, the probe sets within the images are ligated with desthiobiotin labeled probes. […] Washing was also performed to remove the displaced biotin-SAPE conjugate. FIG. 15(C) contains an image after subsequent restraining with SAPE.

Chain of streptavidin (P22629 25-183, species assumed): as the sequence (P22629 25-183) above

O=C(O)CCCC[C@@H]1SC[C@@H]2NC(=O)N[C@@H]21 [biotin]
binding affinity with streptavidin (streptavidin): 1e+15 M⁻¹ | intensity after SAPE staining (SAPE [1]): extremely strong

C[C@@H]1NC(=O)N[C@@H]1CCCCCC(=O)O [desthiobiotin]
binding affinity with streptavidin (streptavidin): 5e+13 M⁻¹ | displacement of SAPE stain and re-staining (SAPE [2]): effectively displace and remove a labeling stain from desthiobiotin
